A value given as a limit tells only on which side of the number the result lay.

What all share (type): in vitro ADME
A short description of data set [1]: In vitro metabolic stability (CLint), rat. Particulars: intrinsic clearance, incubation 0-30 minutes at 37° C. with NADPH regenerating system. On the procedure:
(§1) The objective of this study was to determine metabolic stability of test items in preclinical species and human liver microsomes. Verapamil and dextromethorphan were used as positive controls for microsomal incubation.
(§2) Incubation medium was prepared by combining 11.2 mL of potassium phosphate monobasic and 38.8 mL of potassium phosphate dibasic, diluted to 1 L with water. Cryopreserved microsomes were thawed and kept on ice until use. Microsomes were then diluted in incubation to a protein concentration of 0.56 mg/mL. Cells were centrifuged, re-suspended in medium and counted by means of a haemocytometer. Cell viability was measured using the Trypan Blue exclusion test.
(§3) NADPH regenerating system solution was prepared by dissolving 1.7 mg of NADP, 7.8 mg of G6P and 6 units of G6P-Dehydrogenase in 1 mL of 2% sodium bicarbonate solution (prepared by dissolving 20 g of NaHCO3 in 1 L of water).
(§4) Test compounds were separately dissolved in DMF to obtain 10 mM stock solutions that were further diluted in water/acetonitrile 50/50 (v/v) to obtain the corresponding 50 uM working solutions. Verapamil and dextromethorphan were dissolved in DMF in order to obtain a 10 mM verapamil solution and 10 mM dextromethorphan solution. These solutions were then diluted in the incubation medium in order to obtain a 50 uM verapamil working solution and a 50 uM dextromethorphan working solution.
(§5) 800 μL-aliquots of NADPH regenerating system were pre-warmed at 37° C. for 5 minutes. […]
(§6) Metabolic stability was calculated from the peak area ratio of the remaining test compound with internal standard versus time. The intrinsic clearance (CLint) was determined from the first order elimination constant k (min^−1) (obtained from GraphPad by plotting the natural logarithm of the peak area ratio of the remaining test item with internal standard versus time), using the actual volume of the incubation V (mL), the amount of hepatocytes in the incubation M (million cells) and the hepatocellularity number per g liver Hn (120 for human).

Data set [2] can be described thus: In vitro metabolic stability (CLint), human. Particulars: intrinsic clearance, incubation 0-30 minutes at 37° C. with NADPH regenerating system. On the procedure:
as §1, §2, §3, §4, §5, §6

Another data set deals with T1, CYP2C8 (Homo sapiens, UniProt P10632).
T1 construct: purchased
T1 sequence (P10632 1-490): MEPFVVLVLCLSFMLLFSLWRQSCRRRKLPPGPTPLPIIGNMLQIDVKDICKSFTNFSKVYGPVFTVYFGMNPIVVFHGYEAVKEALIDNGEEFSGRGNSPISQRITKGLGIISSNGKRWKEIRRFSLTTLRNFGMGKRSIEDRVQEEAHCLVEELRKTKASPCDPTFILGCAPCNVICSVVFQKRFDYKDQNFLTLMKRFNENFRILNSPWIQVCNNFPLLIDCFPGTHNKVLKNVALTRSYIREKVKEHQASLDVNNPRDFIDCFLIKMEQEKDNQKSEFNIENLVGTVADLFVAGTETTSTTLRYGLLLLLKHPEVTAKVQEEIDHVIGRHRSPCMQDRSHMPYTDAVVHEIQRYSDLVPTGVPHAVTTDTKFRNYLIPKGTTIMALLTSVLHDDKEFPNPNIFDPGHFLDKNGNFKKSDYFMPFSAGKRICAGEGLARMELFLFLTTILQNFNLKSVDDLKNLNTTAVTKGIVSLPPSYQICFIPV
Kind of data set: CYP450 inhibition, Vivid Baculosomes (2C8/DBOMF). Particulars: recombinant human CYP450 Baculosomes, substrate DBOMF; top concentration 5.00E-05. An excerpt: The method uses recombinant human CYP450 to metabolize pro-fluorescent probe substrates to fluorescent products. IC50 values for the effect of test compounds on the metabolism of these probe substrates provides a measure of the potency of inhibition of individual CYP450 isoforms.
The described assays measure in vitro inhibitory effects (pIC50) of compounds at the human P450 isoforms (1A2, 2C8, 2C9, 2C19, 2D6, 3A4) expressed in recombinant microsomes. Pro-fluorescent probe substrates are metabolized to fluorescent products by the enzymes.
Fluorescence is measured in kinetic mode (1 read/min for 10 min) and the fluorescence rate is calculated. Data are normalized to controls: DMSO represents 0% effect (i.e. no inhibition), while 10 μM Miconazole is set to 100% effect (i.e. complete inhibition).
Inhibition of the fluorescent signal determined by P450 […] indicates antagonist activity of the compound and allows for the calculation of the compound plC50.
CRCs of compounds are run on two different test occasions (n=2) by preparing serial dilutions from the same compound stock solution. Details of the solutions are outlined in Table 6:
Test compound serial dilutions 1 to 3 were performed from a 10 mM stock solution in DMSO by Biomek FX to generate 10 point CRC. 100% DMSO was used for assay low controls. 10 mM (2 mM for 3A4/DBOMF, 2C8/DBOMF assay only) miconazole solution in DMSO was used as assay high controls. The final concentrations of the 10 point CRCs of test compounds in the assay plate were 5.00E-05; 1.67E-05; 5.56E-06; 1.85E-06; 6.17E-07; 2.06E-07; 6.86E-08; 2.29E-08; 7.62E-09 and 2.54E-09, respectively.
The CYP3A4 and CYP2C8 were assayed using the Vivid CYP3A4 Baculosomes, CYP2C8 Baculosomes and Vivid DBOMF Substrate. […]
10 μl/well from compound plate was added and incubated for 10 min at 37° C. on a plate shaker. […] The plate was transferred into the fluorescent plate reader (EnVision, Wallac) immediately within 2 min and monitor fluorescence every minute for 10 (Excitation 485, Emission 535 and Mirror 505 FITC). […]
The inhibition effect was expressed as percentage. […]

On to `Cc1ccc(Oc2ccc(N3C(=O)NC(C)(C)C3=O)c(N)n2)c2c1OCC21CC1` [Example 1, 3-[2-amino-6-(7-methylspiro[2H-benzofuran-3,1′-cyclopropane]-4-yl)oxy-3-pyridyl]-5,5-dimethyl-imidazolidine-2,4-dione], for which, in data set [1], the CLi rat came to 5.4 mL/min/g liver. Moreover, the CLi human in data set [2] is given as 1.1 mL/min/g liver. The IC50 (in general, the concentration needed to halve the response being measured) on CYP2C8 stood at 8.9 µM.
Regarding `COc1nc(Oc2ccc(C)c3c2C2(CC2)CO3)ccc1N1C(=O)NC(C)(C)C1=O` [Reference Example 2, reference compound], the CLi rat in data set [1] came to 8.7 mL/min/g liver. In data set [2], the CLi human worked out at 2.0 mL/min/g liver. In addition, the IC50 at CYP2C8 was found to be 2.3 µM.
Regarding `CC1(C)NC(=O)N(c2ccc(Oc3cccc(OC(F)(F)F)c3)nc2N)C1=O` [Example 9, 3-[2-amino-6-[3-(trifluoromethoxy)phenoxy]-3-pyridyl]-5,5-dimethyl-imidazolidine-2,4-dione], in data set [1], the CLi rat is recorded as under 0.5 mL/min/g liver. Moreover, the CLi human in data set [2] is given as under 0.5 mL/min/g liver. Further, the IC50 at CYP2C8 was over 50 µM.

For the origin of these results see patent US20260199309A1, “COMPOUNDS FOR THE TREATMENT OF CENTRA NERVOUS SYSTEM DISORDERS” (Autifony Therapeutics Limited, priority 2022, published 2026).
